Data reported in article PMC12736293, “Design of Artificial Peptide Against HIV-1 Based on the Heptad-Repeat Rules and Membrane-Anchor Strategies” (Pharmaceuticals, 2025).
Like-named read-outs stand apart in the source and are kept apart here. Square brackets hold non-standard residues; d marks the D form. Peptide text beside a SMILES is read from it. * marks the point of attachment. X1 = CC(C)CCC[C@@H](C)[C@H]1CC[C@H]2[C@@H]3CC=C4C[C@@H](OC(=O)C*)CC[C@]4(C)[C@H]3CC[C@]12C; Palmitoyl = CCCCCCCCCCCCCCCC(=O)*; βAla = NCCC(=O)O

Experiments:
[1] = biological target: T1, N36/C34 six-helix bundle (6-HB) (Human immunodeficiency virus type 1 group M subtype B, UniProt P04578); experiment: SE-HPLC analysis of 6-HB formation between N36 and C34; format: biochemical, HIV-1; conditions: gradual addition of peptide to the C34/N36 mixture; PBS pH 7.4, BioSep-SEC-S2000, 210 nm
T1 construct: corresponding to the NHR region of gp41 (residues 546–581); made in house; host or cells: chemical synthesis (Fmoc solid-phase)
T1 sequence (P04578 546-581): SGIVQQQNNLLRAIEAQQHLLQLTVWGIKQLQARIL

[2] = liver microsomes
Experimental: Phase I Metabolic Stability Assay
(§1) Experiments were carried out using the Phase I Metabolic Stability Research Kit (IPHASE, Suzhou, China). Solution A in the kit was pre-incubated at 37 °C for 5 min, and solution B was prepared from PBS (100 mM), the subject (or positive substrate), and liver microsomes. The above two were mixed and immediately placed in a 37 °C water bath for incubation. The incubation solution is quantitatively removed from the incubation system at preset time points (0, 5, 10, 15, 30, 60 min), and an equal volume of termination solution is added. Each sample was run in parallel three times. The substrate remaining amount at each time point was determined by RP-HPLC (Shimadzu preparative HPLC system, Shimadzu Corporation, Kyoto, Japan), the substrate remaining percentage was calculated, and the slope k was determined by linear regression analysis to calculate the Elimination half-life and Hepatic microsomal intrinsic clearance.

[3] = test system: HIV-1 Env-mediated cell–cell fusion (H9/HIV-1 IIIB cells and MT-2 cells); format: cell-based; conditions: for IC50: Calcein AM-labelled H9/HIV-1 IIIB cells, peptide 30 min at 37 °C, then MT-2 cells 2 h, fused cells counted by fluorescence microscopy, triplicate, mean ± SD, read-out: IC50, inhibitory activity on HIV-1 Env-mediated cell–cell fusion
Experimental: 4.2. HIV-1 Env-Mediated Cell–Cell Fusion Assay
Briefly, the fluorescent reagent Calcein AM (abcam, Shanghai, China) was used to label H9/HIV-1 IIIB cells (obtained from the Inner Mongolia Autonomous Region New Drug Screening Engineering Research Center in Inner Mongolia Medical University, Hohhot, China). First, 2.5 μL of Calcein AM was used to stain 2 × 10^5 H9/HIV-1 IIIB cells. After labeling at 37 °C for 30 min, the cells were washed twice with PBS (Thermo Fisher Scientific, Waltham, MA, USA) and resuspended in fresh RPMI 1640 (Sigma-Aldrich, St. Louis, MO, USA) medium supplemented with 10% FBS. Next, 50 μL of diluted peptides and 50 μL of a mixture containing 2 × 10^5 H9/HIV-1 IIIB cells/mL were added to a 96-well cell culture plate and incubated at 37 °C for 30 min. Subsequently, 1 × 10^5 MT-2 cells were added to the mixture and cultured at 37 °C for 2 h. The fused cells were quantified using an inverted fluorescence microscope. The IC50 values were calculated using CalcuSyn software (Version 2.0).

[4] = biological target: T1, N36/C34 six-helix bundle (6-HB); experiment: N-PAGE detection of blocking of 6-HB formation between C34 and N36; format: biochemical, HIV-1; conditions: N36 (20 μM) with rising peptide concentration, 37 °C 30 min, then C34 (20 μM) 30 min
Experimental: Figure 5 (A) N-PAGE to detect the blocking of 6-HB formation between C34 and N36 by EK35S peptide. N36 (20 μM) with or without EK35S was incubated at 37 °C for 30 min, followed by the addition of C34 (20 μM). The mixture was incubated at 37 °C for another 30 min before loading into the gel; (B) N-PAGE to detect the blocking of 6-HB formation between C34 and N36 by EK35S-Plam peptide. N36 (20 μM) with or without EK35S-Plam was incubated at 37 °C for 30 min, followed by the addition of C34 (20 μM). The mixture was incubated at 37 °C for another 30 min before loading into the gel.
4.6. Methods for Native Polyacrylamide Gel Electrophoresis (N-PAGE)
Peptides, as well as their equimolar mixtures, were prepared at a final concentration of 100 μM in PBS (10 mM, pH 7.4) and incubated at 37 °C for 30 min. After incubation, the peptide solutions were mixed with methyl green loading buffer in a 1:1 ratio, and 20 μL of each sample was loaded into the wells of the gel. Gel electrophoresis was performed at room temperature, initially at a constant voltage of 90 V for 0.5 h, followed by 150 V for 2–3 h. The gels were then stained with Coomassie Brilliant Blue G250 (Bio-Rad, Shanghai, China), and images were captured using the ChampGel 6000 Imaging System (Sage Creation Ltd., Beijing, China).

[5] = test system: HIV-1 pseudovirus derived from the JFRL macrophagic strain (subtype B) on U87 CD4+ CCR5+ cells; format: cell-based; conditions: luciferase read-out 48 h post-infection
Experimental: 4.3. Neutralization Assay of HIV-1 Pseudovirus
Briefly, U87 CD4^+ CCR5^+ cells (obtained from the Inner Mongolia Autonomous Region New Drug Screening Engineering Research Center in Inner Mongolia Medical University, Hohhot, China) (1 × 10^4 cells/well) were plated in 96-well tissue culture plates and incubated at 37 °C in a humidified 5% CO2 atmosphere for 12 h to allow cell adherence. Serial dilutions of the test peptides were prepared, and each dilution was mixed with the HIV-1 pseudovirus derived from the JFRL macrophagic strain (subtype B). After incubating the virus-peptide mixtures at 37 °C for 30 min to allow interaction, the mixtures were transferred to the pre-seeded U87 CD4^+ CCR5^+ cells. At 12 h post-infection, the culture medium was refreshed to remove unbound viruses and excess peptides. Forty-eight hours post-infection, the cells were lysed using Cell Culture Lysis Reagent (Promega, Madison, WI, USA), and the luminescence intensity (reflecting luciferase activity) was quantified using the Luciferase Assay System (Promega, E4030) according to the manufacturer’s instructions.

[6] = in vitro; conditions: liver microsomes
Experimental: Phase I Metabolic Stability Assay
as §1

| Molecule | IC50 [3] [µM] | IC50 [5] [µM] | further results |
| --- | --- | --- | --- |
| CCCCCCCCCCCCCCCC(=O)NCCCC[C@H](NC(=O)CCNC(=O)[C@H](CCCCN)NC(=O)[C@H](CCCCN)NC(=O)[C@H](CO)NC(=O)[C@H](CC(C)C)NC(=O)[C@H](CCC(=O)O)NC(=O)[C@H](CCC(=O)O)NC(=O)[C@@H](NC(=O)[C@H](CCCCN)NC(=O)[C@H](CCCCN)NC(=O)[C@H](CO)NC(=O)[C@H](CC(C)C)NC(=O)[C@H](CCC(=O)O)NC(=O)[C@H](CCC(=O)O)NC(=O)[C@@H](NC(=O)[C@H](CCCCN)NC(=O)[C@H](CCCCN)NC(=O)[C@H](CO)NC(=O)[C@H](CC(C)C)NC(=O)[C@H](CCC(=O)O)NC(=O)[C@H](CCC(=O)O)NC(=O)[C@@H](NC(=O)[C@H](CCCCN)NC(=O)[C@H](CCCCN)NC(=O)[C@H](CO)NC(=O)[C@H](CC(C)C)NC(=O)[C@H](CCC(=O)O)NC(=O)[C@H](CCC(=O)O)NC(=O)[C@@H](NC(=O)[C@H](CCCCN)NC(=O)[C@H](CCCCN)NC(=O)[C@H](CO)NC(=O)[C@H](CC(C)C)NC(=O)[C@H](CCC(=O)O)NC(=O)[C@H](CCC(=O)O)NC(=O)[C@@H](NC(C)=O)[C@@H](C)CC)[C@@H](C)CC)[C@@H](C)CC)[C@@H](C)CC)[C@@H](C)CC)C(N)=O [EK35S-Palm] (Ac-IEELSKKIEELSKKIEELSKKIEELSKKIEELSKK[βAla]K(Palmitoyl)-NH2) |  |  | effect on the 6-HB complex peak (SE-HPLC) [1]: decreased significantly; half-life [2]: 3.61 h; fold more potent than the parent EK35S ([3]; cell–cell fusion and pseudovirus inhibition (Table 2 and Figure 3)): over 200 fold; effect on the 6-HB band (N-PAGE) [4]: gradually became significantly lighter |
| CC[C@H](C)[C@H](NC(C)=O)C(=O)N[C@@H](CCC(=O)O)C(=O)N[C@@H](CCC(=O)O)C(=O)N[C@@H](CC(C)C)C(=O)N[C@@H](CO)C(=O)N[C@@H](CCCCN)C(=O)N[C@@H](CCCCN)C(=O)N[C@H](C(=O)N[C@@H](CCC(=O)O)C(=O)N[C@@H](CCC(=O)O)C(=O)N[C@@H](CC(C)C)C(=O)N[C@@H](CO)C(=O)N[C@@H](CCCCN)C(=O)N[C@@H](CCCCN)C(=O)N[C@H](C(=O)N[C@@H](CCC(=O)O)C(=O)N[C@@H](CCC(=O)O)C(=O)N[C@@H](CC(C)C)C(=O)N[C@@H](CO)C(=O)N[C@@H](CCCCN)C(=O)N[C@@H](CCCCN)C(=O)N[C@H](C(=O)N[C@@H](CCC(=O)O)C(=O)N[C@@H](CCC(=O)O)C(=O)N[C@@H](CC(C)C)C(=O)N[C@@H](CO)C(=O)N[C@@H](CCCCN)C(=O)N[C@@H](CCCCN)C(=O)N[C@H](C(=O)N[C@@H](CCC(=O)O)C(=O)N[C@@H](CCC(=O)O)C(=O)N[C@@H](CC(C)C)C(=O)N[C@@H](CO)C(=O)N[C@@H](CCCCN)C(=O)N[C@@H](CCCCN)C(=O)NCCC(=O)N[C@@H](CSCC(=O)O[C@H]1CC[C@@]2(C)C(=CC[C@H]3[C@@H]4CC[C@H]([C@H](C)CCCC(C)C)[C@@]4(C)CC[C@@H]32)C1)C(N)=O)[C@@H](C)CC)[C@@H](C)CC)[C@@H](C)CC)[C@@H](C)CC [EK35S-Chol] (Ac-IEELSKKIEELSKKIEELSKKIEELSKKIEELSKK[βAla]C(X1)-NH2) | > 100 | 85.7 ± 2.02 |  |
| Ac-IEELYKKIEELYKKIEELYKKIEELYKKIEELYKK-NH2 [EK35Y] | 23.2 ± 6.72 | 15.2 ± 0.65 |  |
| enfuvirtide |  |  | half-life [6]: 2.51 h |
| Ac-IEELIKKIEELIKKIEELIKKIEELIKKIEELIKK-NH2 [EK35] | > 100 | 119 ± 1.39 |  |
| Ac-IEELSKKIEELSKKIEELSKKIEELSKKIEELSKK-NH2 [EK35S] | 5.98 ± 1.23 | 2.42 ± 0.18 | effect on the 6-HB complex peak (SE-HPLC) [1]: does not affect 6-HB peak; half-life [6]: 2.22 h; effect on the 6-HB band (N-PAGE) [4]: no obvious change |
| Enfuvirtide | 0.008 ± 0.002 | 0.00824 ± 0.00087 |  |
| Ac-IEELFKKIEELFKKIEELFKKIEELFKKIEELFKK-NH2 [EK35F] | 92.4 ± 9.22 | 110 ± 2.37 |  |
| Ac-IEELMKKIEELMKKIEELMKKIEELMKKIEELMKK-NH2 [EK35M] | 15.8 ± 8.92 | 25.3 ± 0.85 |  |
| IEELSKK IEELSKK IEELSKK IEELSKK IEELSKK-OApc [EK35S-OApc, EK35S conjugated with protected oleanolic acid derivative OApc via click chemistry] | 4.82 ± 0.89 | 1.88 ± 0.14 |  |
